Reference: ChEMBL document CHEMBL5390272, “Discovery of a potent and selective human AC2 inhibitor based on 7-deazapurine analogues of adefovir” (Bioorg Med Chem, 2023)
pIC50: −log10 of the molar value.

Tests used:
[1] = Inhibition of Bordetella pertussis Adenylate cyclase toxin in mouse J774.A1 cells preincubated for 5 hrs followed by ACT addition and measured after 30 mins by CatchPointcAMP immunoassay method; type: cell-based
[2] = Cytotoxicity against mouse J774.A1 cells assessed as cell viability at 10 uM incubated for 5 hrs by Cell Titer-Glo Luminescent Cell Viability assay relative to control; type: toxicity, cell-based; conditions: read-out: Activity
HEK293 = test: Cytotoxicity against AC1 expressed HEK293 cells by CellTiter-Glo 2.0 assay relative to control; type: toxicity, cell-based; parameters: concentration or dose not given beside the values; conditions: human
NHDF = test: Cytotoxicity against human NHDF cells by CellTiter-Glo 2.0 assay; type: toxicity, cell-based
HL-60 = test: Cytotoxicity against human HL-60 cells by CellTiter-Glo 2.0 assay; type: functional, cell-based
HeLa S3 = test: Cytotoxicity against human HeLa S3 cells by CellTiter-Glo 2.0 assay; type: functional, cell-based
CCRF-CEM = test: Cytotoxicity against human CCRF-CEM cells by CellTiter-Glo 2.0 assay; type: functional, cell-based
HepG2 = test: Cytotoxicity against human HepG2 cells by CellTiter-Glo 2.0 assay; type: functional, cell-based

Structure (SMILES) | pIC50 [1] | viability at 5 h, 10 µM [2] [%] | Activity (HEK293) [%] | pIC50 (NHDF) | pIC50 (HL-60) | pIC50 (HeLa S3) | pIC50 (CCRF-CEM) | pIC50 (HepG2)
CC(C)OC(=O)[C@H](Cc1ccccc1)NP(=O)(COCCn1cc(-c2ccccc2)c2c(N)ncnc21)N[C@@H](Cc1ccccc1)C(=O)OC(C)C | 4.88 | 82 | -18 | < 5.00 | 5.33 | 5.28 | 5.32 | 5.18
CC(C)OC(=O)[C@H](Cc1ccccc1)NP(=O)(COCCn1cc(-c2cncnc2)c2c(N)ncnc21)N[C@@H](Cc1ccccc1)C(=O)OC(C)C | < 5.00 | 128 | 102 | < 5.00 | < 5.00 | < 5.00 | < 5.00 | < 5.00
CC(C)OC(=O)[C@H](Cc1ccccc1)NP(=O)(COCCn1cc(-c2ccc([N+](=O)[O-])cc2)c2c(N)ncnc21)N[C@@H](Cc1ccccc1)C(=O)OC(C)C | 5.90 | 113 | 97 | < 5.00 | 5.34 | 5.53 | 5.39 | < 5.00
CCc1cn(CCOCP(=O)(N[C@@H](Cc2ccccc2)C(=O)OC(C)C)N[C@@H](Cc2ccccc2)C(=O)OC(C)C)c2ncnc(N)c12 | < 5.00 | 125 | 90 | < 5.00 | 5.10 | < 5.00 | < 5.00 | < 5.00
CC(C)OC(=O)[C@H](Cc1ccccc1)NP(=O)(COCCn1cc(-c2cccc(NS(C)(=O)=O)c2)c2c(N)ncnc21)N[C@@H](Cc1ccccc1)C(=O)OC(C)C | 5.53 | 87 | 98 | < 5.00 | 5.15 | 4.82 | 5.16 | < 5.00
Cc1cn(CCOCP(=O)(N[C@@H](Cc2ccccc2)C(=O)OC(C)C)N[C@@H](Cc2ccccc2)C(=O)OC(C)C)c2ncnc(N)c12 | 5.83 | 112 | 93 | < 5.00 | 5.13 | < 5.00 | < 5.00 | 5.01
C#Cc1cn(CCOCP(=O)(N[C@@H](Cc2ccccc2)C(=O)OC(C)C)N[C@@H](Cc2ccccc2)C(=O)OC(C)C)c2ncnc(N)c12 | < 5.00 | 129 | 85 | < 5.00 | 5.19 | < 5.00 | 5.24 | 5.10
CC(C)OC(=O)[C@H](Cc1ccccc1)NP(=O)(COCCn1cc(-c2ccccn2)c2c(N)ncnc21)N[C@@H](Cc1ccccc1)C(=O)OC(C)C | 5.97 | 104 | -17 | < 5.00 | 5.29 | 5.10 | 5.24 | < 5.00
CC(C)OC(=O)[C@H](Cc1ccccc1)NP(=O)(COCCn1cc(C(C)C)c2c(N)ncnc21)N[C@@H](Cc1ccccc1)C(=O)OC(C)C | < 5.00 | 121 | 51 | < 5.00 | 5.13 | < 5.00 | 5.18 | < 5.00
CC(C)OC(=O)[C@H](Cc1ccccc1)NP(=O)(COCCn1cc(-c2cccc(S(N)(=O)=O)c2)c2c(N)ncnc21)N[C@@H](Cc1ccccc1)C(=O)OC(C)C | 5.47 | 114 | 110 | < 5.00 | 5.32 | < 5.00 | 5.25 | < 5.00
CC(C)OC(=O)[C@H](Cc1ccccc1)NP(=O)(COCCn1cc(-c2cccc(C#N)c2)c2c(N)ncnc21)N[C@@H](Cc1ccccc1)C(=O)OC(C)C | 5.85 | 111 | 29 | < 5.00 | 5.49 | 5.00 | 5.41 | 5.03
COc1cccc(-c2cn(CCOCP(=O)(N[C@@H](Cc3ccccc3)C(=O)OC(C)C)N[C@@H](Cc3ccccc3)C(=O)OC(C)C)c3ncnc(N)c23)c1 | 5.32 | 94 | -14 | < 5.00 | 5.26 | 5.04 | 5.31 | 4.86
CC(C)OC(=O)[C@H](Cc1ccccc1)NP(=O)(COCCn1cc(-c2cccs2)c2c(N)ncnc21)N[C@@H](Cc1ccccc1)C(=O)OC(C)C | – | 36 | -9 | 6.40 | 6.25 | 5.96 | 6.10 | 5.99
